tested on: IL-12 induced STAT4 phosphorylation mediated by TYK2/JAK2; assay: IL-12 induced pSTAT4 in human PBMC; type: cell-based; settings: 1 hr compound, 1.7 ng/mL IL-12 for 30 minutes
Method: Human PBMC were isolated from buffy coat and are stored frozen for assays as needed. […] 15 μL of compound or DMSO was added to the well at the desired concentrations and incubated at 1 hr at 37° C. 15 μL of stimulus (final concentration of 1.7 ng/mL IL-12) was added for 30 minutes prior to pSTAT4 and total STAT4 analysis using cell lysates prepared and analyzed by MSD reagents as per manufacturer protocol. The final DMSO concentration of compound in the assay was 0.1%. The IL-12 induced pSTAT4 assay evaluates the inhibition of IL-12 induced STAT4 phosphorlyation mediated by TYK2/JAK2 ([…] complex).

SMILES	IC50
CNc1cc(-c2cn([C@H]3CCC[C@H]3F)c3ncccc23)nc2c(C(=O)N[C@H]3COC[C@H]3O)cnn12 [Compound I-722]	< 0.1 µM
CNc1cc(-c2cn([C@H]3CCOC[C@@H]3OC)c3ncccc23)nc2c(C(=O)N[C@H]3CC[C@@H]3OC)cnn12 [Compound I-663]	< 0.1 µM
CNc1cc(-c2cn([C@H]3CC(=O)N(C)C3)c3ncccc23)nc2c(C(=O)N[C@H]3CC[C@@H]3OC)cnn12 [Compound I-1024]	< 0.1 µM
CNc1cc(Nc2cccn([C@H]3C[C@H](F)C3)c2=O)nc2c(C(=O)N[C@H]3C[C@@H]3OC)cnn12 [Compound I-138]	< 0.1 µM
CNc1cc(-c2cnc3n([C@@H]4CCOC[C@H]4O)cccc2-3)nc2c(C(=O)N[C@H]3CC[C@@H]3F)cnn12 [Compound I-848]	< 0.1 µM
CNc1cc(Nc2cccn([C@@H]3C[C@H]3F)c2=O)nc2c(C(=O)NC3CC[C@@H]3F)cnn12 (stereo partly drawn) [Compound I-151]	< 0.1 µM
CNc1cc(-c2cn([C@H]3CCOC3)c3ncccc23)nc2c(C(=O)N[C@H]3CC[C@@H]3OC)cnn12 [Compound I-613]	< 0.1 µM
CNc1cc(Nc2cccn([C@H]3CCC[C@H]3O)c2=O)nc2c(C(=O)NC3CC[C@]3(C)OC)cnn12 (stereo partly drawn) [Compound I-390]	< 0.1 µM
CNc1cc(-c2cnc3n(CCCN4CCOCC4)cccc2-3)nc2c(C(=O)N[C@H]3CC[C@@H]3OC)cnn12 [Compound I-990]	< 0.1 µM
CNc1cc(-c2cn([C@@H]3COC[C@H]3OC)c3ncccc23)nc2c(C(=O)NC3CC[C@@H]3OC)cnn12 (stereo partly drawn) [Compound I-636]	< 0.1 µM
CNc1cc(Nc2cccn([C@@H]3CCC[C@H](C#N)C3)c2=O)nc2c(C(=O)NC3CCC3(F)F)cnn12 (stereo partly drawn) [Compound I-327]	< 0.1 µM
CNc1cc(-c2cnc3n([C@@H]4CCOC4)cccc2-3)nc2c(C(=O)N[C@H]3CC[C@@H]3OC)cnn12 [Compound I-1004]	< 0.1 µM
CNc1cc(-c2cnc3n([C@@H]4COC[C@H]4O)cccc2-3)nc2c(C(=O)N[C@@H]3CC[C@H]3OC)cnn12 [Compound I-876]	< 0.1 µM
CNc1cc(Nc2cccn([C@@H]3CCC[C@@H](OC)C3)c2=O)nc2c(C(=O)NC3CC[C@@H]3F)cnn12 (stereo partly drawn) [Compound I-227]	< 0.1 µM
CNc1cc(-c2cn(CCOC)c3ncccc23)nc2c(C(=O)NC3CC[C@@H]3OC)cnn12 (stereo partly drawn) [Compound I-795]	< 0.1 µM
CNc1cc(-c2cn([C@@H]3CCOC3)c3ncccc23)nc2c(C(=O)NC3CC[C@@H]3OC)cnn12 (stereo partly drawn) [Compound I-609]	< 0.1 µM
CNc1cc(Nc2cccn(C3COC3)c2=O)nc2c(C(=O)NC3CC[C@@H]3F)cnn12 (stereo partly drawn) [Compound I-163]	< 0.1 µM
CNc1cc(Nc2cccn(C3CCOCC3)c2=O)nc2c(C(=O)NC3CC[C@H]3F)cnn12 (stereo partly drawn) [Compound I-191]	< 0.1 µM
CNc1cc(Nc2cccn([C@H]3C[C@H](OC)C3)c2=O)nc2c(C(=O)N[C@H]3CCC3(F)F)cnn12 [Compound I-293]	< 0.1 µM
CNc1cc(-c2cn([C@@H]3CCOC[C@@H]3OC)c3ncccc23)nc2c(C(=O)NC3CCC3(F)F)cnn12 (stereo partly drawn) [Compound I-702]	< 0.1 µM
CNc1cc(-c2cn([C@H]3COC[C@@H]3OC)c3ncccc23)nc2c(C(=O)N[C@H]3CC[C@@H]3F)cnn12 [Compound I-523]	< 0.1 µM

SMILES	IC50
CNc1cc(Nc2cccn(C(C)C)c2=O)nc2c(C(=O)NC3CC[C@]3(C)O)cnn12 (stereo partly drawn) [Compound I-339]	< 0.1 µM
CNc1cc(-c2cn([C@H]3COC[C@H]3F)c3ncccc23)nc2c(C(=O)N[C@H]3CC[C@H]3O)cnn12 [Compound I-574]	< 0.1 µM
CNc1cc(-c2cn(C3CN(C)C3)c3ncccc23)nc2c(C(=O)NC3CC[C@@H]3OC)cnn12 (stereo partly drawn) [Compound I-608]	< 0.1 µM
CNc1cc(-c2cnc3n([C@@H]4COC[C@H]4OC)cccc2-3)nc2c(C(=O)NC3CC[C@@H]3OC)cnn12 (stereo partly drawn) [Compound I-883]	< 0.1 µM
CNc1cc(Nc2cccn([C@H]3C[C@@H](OC)C3)c2=O)nc2c(C(=O)N[C@H]3CCC3(F)F)cnn12 [Compound I-296]	< 0.1 µM
CNc1cc(Nc2cccn([C@H]3[C@@H]4COC[C@@H]43)c2=O)nc2c(C(=O)N[C@@H]3CC[C@@]3(C)OC)cnn12 [Compound I-410]	< 0.1 µM
CNc1cc(Nc2cccn([C@H]3C[C@H](F)C3)c2=O)nc2c(C(=O)N[C@@H]3CCC3(F)F)cnn12 [Compound I-285]	< 0.1 µM
CNc1cc(Nc2cccn(-c3ccccn3)c2=O)nc2c(C(=O)N[C@@H]3CC[C@H]3OC)cnn12 [Compound I-264]	< 0.1 µM
CNc1cc(Nc2cccn([C@H]3CCC[C@H]3O)c2=O)nc2c(C(=O)N[C@H]3CC[C@]3(C)OC)cnn12 [Compound I-391]	< 0.1 µM
CNc1cc(Nc2cccn([C@@H]3CCOC[C@@H]3OC)c2=O)nc2c(C(=O)N[C@@H]3CC[C@@H]3F)cnn12 [Compound I-235]	< 0.1 µM
CNc1cc(-c2cn([C@@H]3CCOC[C@H]3O)c3ncccc23)nc2c(C(=O)N[C@H]3CC[C@@H]3F)cnn12 [Compound I-538]	< 0.1 µM
CNc1cc(Nc2cccn([C@H]3C[C@H](OC)C3)c2=O)nc2c(C(=O)NC3CC[C@@H]3F)cnn12 (mixture of isomers) [Compound I-176]	< 0.1 µM
CNc1cc(Nc2cccn([C@@H]3C[C@H]3OC)c2=O)nc2c(C(=O)N[C@H]3CC[C@@H]3F)cnn12 [Compound I-155]	< 0.1 µM
CNc1cc(-c2cn([C@H]3CCOC3)c3ncccc23)nc2c(C(=O)NC3CC[C@@H]3OC)cnn12 (stereo partly drawn) [Compound I-612]	< 0.1 µM
CNc1cc(Nc2cccn([C@@H]3CCOC[C@@H]3OC)c2=O)nc2c(C(=O)N[C@@H]3CCC3(F)F)cnn12 [Compound I-338]	< 0.1 µM
CNc1cc(-c2cnc3n([C@@H]4CN(C)C[C@H]4OC)cccc2-3)nc2c(C(=O)NC3CC[C@@H]3OC)cnn12 (stereo partly drawn) [Compound I-943]	< 0.1 µM
CNc1cc(-c2cn([C@H]3CCN(C)C3)c3ncccc23)nc2c(C(=O)NC3CC[C@@H]3OC)cnn12 (stereo partly drawn) [Compound I-618]	< 0.1 µM
CNc1cc(-c2cnc3n([C@@H]4COC[C@H]4O)cccc2-3)nc2c(C(=O)NC3CC3)cnn12 [Compound I-817]	< 0.1 µM
CNc1cc(Nc2cccn(-c3ncccc3F)c2=O)nc2c(C(=O)N[C@@H]3CC[C@@]3(C)OC)cnn12 [Compound I-415]	< 0.1 µM
CNc1ccc(-c2cc(NC)n3ncc(C(=O)NC4CC[C@H]4F)c3n2)n2ccnc12 (stereo partly drawn) [Compound I-483]	< 0.1 µM
CNc1cc(Nc2cccn([C@H]3CCCOC3)c2=O)nc2c(C(=O)N[C@H]3CC[C@@H]3F)cnn12 [Compound I-198]	< 0.1 µM

SMILES	IC50
CNc1cc(-c2cn(C3CN(C)C3)c3ncccc23)nc2c(C(=O)N[C@H]3CC[C@@H]3F)cnn12 [Compound I-514]	< 0.1 µM
CNc1cc(-c2cnc3n([C@H]4COC[C@@H]4OC)cccc2-3)nc2c(C(=O)N[C@H]3CC[C@@H]3F)cnn12 [Compound I-833]	< 0.1 µM
CNc1cc(-c2cn([C@H]3COC[C@@H]3OC)c3ncccc23)nc2c(C(=O)N[C@H]3CC[C@H]3F)cnn12 [Compound I-529]	< 0.1 µM
CNc1cc(Nc2cccn([C@@H]3CCC[C@@H]3O)c2=O)nc2c(C(=O)N[C@@H]3CCC3(F)F)cnn12 [Compound I-305]	< 0.1 µM
CNc1cc(-c2cn([C@H]3CCC4(C3)OCCO4)c3ncccc23)nc2c(C(=O)NC3CC[C@@H]3OC)cnn12 (stereo partly drawn) [Compound I-671]	< 0.1 µM
CNc1cc(-c2cnc3n([C@H]4CCOC[C@@H]4O)cccc2-3)nc2c(C(=O)N[C@@H]3C[C@@H]3F)cnn12 [Compound I-825]	< 0.1 µM
CNc1cc(Nc2cccn([C@H]3C[C@@H]3F)c2=O)nc2c(C(=O)NC3CCC3(F)F)cnn12 (stereo partly drawn) [Compound I-277]	< 0.1 µM
CNc1cc(-c2cn([C@@H]3CCN(C)C3)c3ncccc23)nc2c(C(=O)NC3CC[C@@H]3OC)cnn12 (stereo partly drawn) [Compound I-615]	< 0.1 µM
CNc1cc(-c2cn(C3COC3)c3ncccc23)nc2c(C(=O)N[C@H]3CC[C@@H]3F)cnn12 [Compound I-508]	< 0.1 µM
CNc1ccc(-c2cc(NC)n3ncc(C(=O)N[C@@H]4C[C@@H]4F)c3n2)n2ccnc12 [Compound I-479]	< 0.1 µM
CNc1ccc(-c2cc(NC)n3ncc(C(=O)N[C@H]4CC[C@@H]4F)c3n2)n2ccnc12 [Compound I-481]	< 0.1 µM
CNc1cc(-c2cn([C@@H]3CCOC[C@H]3F)c3ncccc23)nc2c(C(=O)NC3CC[C@@H]3OC)cnn12 (stereo partly drawn) [Compound I-652]	< 0.1 µM
CNc1ccc(-c2cc(NC)n3ncc(C(=O)NC4CC[C@@H]4OC)c3n2)n2ccnc12 (stereo partly drawn) [Compound I-488]	< 0.1 µM
CNc1cc(Nc2cccn([C@H]3C[C@@H](OC)C3)c2=O)nc2c(C(=O)NC3CC[C@@H]3F)cnn12 (mixture of isomers) [Compound I-173]	< 0.1 µM
CNc1cc(-c2cn([C@@H]3COC[C@@H]3F)c3ncccc23)nc2c(C(=O)N[C@H]3CC[C@@H]3OC)cnn12 [Compound I-622]	< 0.1 µM
CNc1cc(Nc2cccn([C@H]3CC[C@H](OC)CC3)c2=O)nc2c(C(=O)N[C@H]3CC[C@@H]3F)cnn12 [Compound I-225]	< 0.1 µM
CC(C)n1cccc(Nc2nc3c(C(=O)NC4CCC4(F)F)cnn3c3c2OCCN3)c1=O (stereo not drawn) [Compound I-765]	< 0.1 µM
CNc1cc(Nc2cccn(C3CCOCC3)c2=O)nc2c(C(=O)N[C@@H]3CCC3(F)F)cnn12 [Compound I-311]	< 0.1 µM
CNc1cc(Nc2cccn(C3CCOCC3)c2=O)nc2c(C(=O)NC3CC[C@@]3(C)OC)cnn12 (stereo partly drawn) [Compound I-405]	< 0.1 µM
CNc1cc(-c2cn([C@@H]3CCC4(C3)OCCO4)c3ncccc23)nc2c(C(=O)N[C@H]3CC[C@@H]3OC)cnn12 [Compound I-806]	< 0.1 µM
CNc1cc(-c2cn([C@H]3COC[C@@H]3OC)c3ccccc23)nc2c(C(=O)N[C@H]3CC[C@@H]3OC)cnn12 [Compound I-742]	< 0.1 µM

From patent US12221453B2, “Substituted pyrazolo[5′,1′:2,3]pyrimido[5,4-b][1,4]oxazines as TYK2 inhibitors” (TAKEDA PHARMACEUTICAL COMPANY LIMITED, priority 2018, dated 2025)
